Experiment [1] has as its system ATGL-KO iPSCs. Kind of experiment: High throughput iPSC chemical screening, Oil Red O (ORO) lipid accumulation. Format: cell-based, mouse. The note with it: for Rank in normalized ORO score from screen: glycolytic switch compounds.
In a further experiment the test system is ATGL-KO mice. The experiment in a line: 18-week observer-blinded placebo-controlled treatment study. It is filed as in vivo, mouse. From the text: FIGS. 8a-8f show graphs of the in vivo validation of the drug hit efficacy on ATGL-KO mice. (FIG. 8a) Kaplan-Meier survival plot of ATGL-KO mice treated with Mefloquine (N=15), Perhexyline (N=15), Vinpocetin low dose (N=15), Vinpocetin high dose (N=15), or water alone (N=15) (FIG. 8b) Contractile function of wild type mice treated with Mefloquine (Mef), Perhexyline (Per), Vinpocetin (Vin), and water (None) at 3 weeks of age before drug treatment (black) and at 18 weeks of age (white) after drug treatment. (FIG. 8c) Contractile function of ATGL-KO mice treated with Mef, Per, Vin, and water at 3 weeks of age before drug treatment (black) and at 10 (gray), and 14 (white) weeks of age after drug treatment. (FIG. 8d) Measurement of triglyceride content in hearts of 14 weeks old wild type (WT) and ATGL-KO (KO) mice after treatment with the indicated drugs. V (H)—vinpocetin high dose, V (L)—vinpocetin low dose. (FIG. 8e) Measurement of triglyceride content in the liver, lung, and kidney of WT mice (gray) and ATGL-KO mice treated with Per (red), Mef (green), V (H) (blue), V (L) (orange), or water (black). (FIG. 8f) Quantitative PCR analysis of metabolic gene expression in the hearts of 14 weeks old ATGL-KO mice treated with water (black), Per (red), and Mef (green) and in the hearts of age-matched WT mice (gray).
We designed an 18-week observer-blinded placebo-controlled study treating both wild type and ATGL-KO mice with mefloquine, perhexyline, and high and low doses of vinpocetin starting from 3 weeks after birth. We assess the survival of each animal throughout the entire treatment course. We also measured the cardiac function of each animal before treatment and at 10 and 14 weeks of age. […] The effect of these drugs on triglyceride content was observed variably in other tissues such as liver, lung, and kidney (FIG. 8e). While these drugs were able to elicit a similar reduction in triglyceride content, they appear to do so by recruiting genes involved in distinct pathways. (FIG. 8f)

For experiment [2], the system named is ATGL-KO iPSCs. The experiment in a line: Cellular metabolism assay (OCR, ECAR). It is filed as cell-based, mouse. The method, then: (§1) FIGS. 7a-7g depict that glycolytic switch inducers modulate the metabolic profile of WT and KO iPSCs. Measurement of (FIG. 7a) oxygen consumption rate (OCR) and (FIG. 7b) extracellular acidification rate (ECAR) in WT and KO iPSCs at day 10 of differentiation following compound pre-treatment for 16 h. Data are expressed as mean±s.d. (n=10 samples, with 3 measurements each) relative to DMSO-treated WT cells. (*P<0.001, student's t-test between compound-treated and DMSO ? treated cells of same type. **P<0.001, student's t-test between DMSO-treated WT and KO cells). Measurement of OCAR/ECAR ratios for drug-treated (FIG. 7c) WT and (FIG. 7d) KO iPSCs following treatment carbonyl cyanide m-chlorophenyl hydrazone (CCCP), at the time indicated (arrow). Antimycin, an electron transport chain inhibitor, was added to each well at the end of the assay to verify that mitochondrial function was intact in drug-treated cells. A schematic model of ATGL ? mediated lipid metabolism in shown for (FIG. 7e) WT cells, (FIG. 7f) KO cells, and (FIG. 7g) drug-treated KO cells.
(§2) We next investigated whether the top-scoring compounds with reported glycolytic switch properties could in fact modulate the OCR and ECAR of differentiated WT and KO iPSCs. We pre-treated day 9 differentiated cells overnight with mefloquine, vinpocetine, and perhexyline at their screen concentrations (Table 3) and measured the changes in OCR and ECAR. […] This is consistent with the increased adaptation to glucose in ATGL-KO cells.
(§3) To determine whether the glycolytic switch inducers work through common or distinct mechanisms, we next examined how the responses of ATGL-KO and WT cells to challenge with carbonyl cyanide m-chlorophenyl hydrazone (CCCP) differed upon pre-treatment with glycolytic switch inducers. CCCP is an uncoupler of the mitochondrial hydrogen gradient that induces maximal cellular oxidative respiration (Goldsby et al., 1963). […] This was due entirely to an increase in OCAR, as the ECAR levels remained relatively unchanged (data not shown).
(§4) ATGL-KO and WT iPSCs were differentiated as EBs to day 9, then collagenase-dissociated and re-plated onto gelatin-coated XF24 plates (Seahorse Bioscience, Andover, Mass.) at a density of 250,000 cells/well. Following an overnight incubation (12-16 hrs) in differentiation medium supplemented with drugs or DMSO, the cells were acclimated to atmospheric CO2 in drug-containing buffer-free medium (Wu, M. et al., 2007) for 1 hour at 37° C. Oxygen consumption rates (OCR) and extracellular acidification rates (ECAR) were measured on the Seahorse Extracellular Flux 24 Analyzer using previously established procedures (Gohil et al., 2010; Wu, M. et al., 2007) and normalized against cell number as assessed by the resazurin assay described above. In all wells, antimycin, an electron transport chain inhibitor, was added at the end of the assay to ascertain that mitochondrial function in the drug-treated cells had been intact and that the OCR and ECAR results were not due to direct mitochondrial toxicity effects from drug treatment.

The test system of a further experiment is WT iPSCs. Kind of experiment: Cellular metabolism assay (OCR, ECAR). It is filed as cell-based, mouse. The method, then: as §1, §2, §3, §4
[3] abbreviates: normalized ORO level vs DMSO-treated cells, compound present during 7 days differentiation, 96-well, negative = decrease in lipid accumulation.
Where [4] appears, read: day 9 differentiated cells pre-treated overnight at screen concentration.

Where a name gives a salt, the structure may show the parent alone. Read-outs that look alike come from different tables or passages of the source.

For `C1CCC(C(CC2CCCCN2)C2CCCCC2)CC1` (centres unmarked) [Perhexiline maleate], the “Rank in normalized ORO score from screen” value with ATGL-KO iPSCs [1] is 4. This molecule gave a Z-score with ATGL-KO iPSCs [1] (setting [3]) of −2.3117. Further, the “cardiac function (echocardiography)” value with ATGL-KO mice (14 weeks of age) is on record as “echocardiographic improvements in cardiac function”. In addition, the “overall triglyceride content in the heart” value with ATGL-KO mice (14 weeks old ATGL-KO mice (FIG. 8d)) is recorded as “reduction in the overall triglyceride content in the heart”. The “impact on OCR in KO cells compared to WT cells” value in the experiment with ATGL-KO iPSCs [2] is given as “smaller impact on OCR in KO cells compared to WT cells”. Moreover, the “extracellular acidification rate (ECAR)” value with ATGL-KO iPSCs [2] (setting [4]) and in the experiment on WT iPSCs (setting [4]) was “increased ECAR” in each case. Also, the “oxygen consumption rate (OCR)” value in the experiment with ATGL-KO iPSCs [2] (setting [4]) and in the experiment with WT iPSCs (setting [4]) was “decreased OCR” each time. Moreover, the “OCR/ECAR ratio after addition of CCCP” value with ATGL-KO iPSCs [2] (pre-treated cells (FIG. 7d)) and in the experiment with WT iPSCs (pre-treated cells (FIG. 7c)) was “no increase in the OCR/ECAR ratio” throughout. In the case of `O=C(NCCNCC(O)COc1ccc(O)cc1)N1CCOCC1` (centres unmarked) [Xamoterol hemifumarate], the Z-score in the experiment on ATGL-KO iPSCs [1] (setting [3]) is −0.1402.

Regarding `Cc1cccc(C)c1N=C1NCCCS1` [Xylazine], the Z-score in the experiment with ATGL-KO iPSCs [1] (setting [3]) is −1.0585. For `Cc1cc(C(C)(C)C)cc(C)c1CC1=NCCN1` [Xylometazoline hydrochloride], the Z-score in the experiment on ATGL-KO iPSCs [1] (setting [3]) was determined as 0.7686.

`COC(=O)[C@@H]1[C@H]2C[C@H]3c4[nH]c5ccccc5c4CCN3C[C@@H]2CC[C@@H]1O` [Yohimbine hydrochloride]: the Z-score in the experiment with ATGL-KO iPSCs [1] (setting [3]) is −1.0356. The same measure, in the same setting: then `O.O=C(O)[C@@H]1[C@H]2C[C@H]3c4[nH]c5ccccc5c4CCN3C[C@@H]2CC[C@@H]1O` [Yohimbinic acid monohydrate], with −0.0239. The molecule `Nc1ccn([C@H]2CC[C@@H](CO)O2)c(=O)n1` [Zalcitabine] registered a Z-score in the experiment on ATGL-KO iPSCs [1] (setting [3]) of 2.323. On the same count and under the same terms, in the case of `CCCOc1ccccc1-c1nc2nn[nH]c2c(=O)[nH]1` [Zaprinast] it was −0.4842; in that of `COc1cc(-c2ccc(=O)[nH]n2)ccc1OC(F)F` [Zardaverine], −0.6963; in that of `Cc1cn([C@H]2C[C@H](N=[N+]=[N-])[C@@H](CO)O2)c(=O)[nH]c1=O` [Zidovudine, AZT], −0.4063.

On to `CN(C)C/C=C(/c1ccc(Br)cc1)c1cccnc1` [Zimelidine dihydrochloride monohydrate], for which the Z-score with ATGL-KO iPSCs [1] (setting [3]) is −0.7577. Still for that read-out and setting: then `Cc1cc(CC(=O)O)n(C)c1C(=O)c1ccc(Cl)cc1` [Zomepirac sodium salt], with 0.8794. Same read-out and setting: in the case of `OCCN1CCN(CC/C=C2/c3ccccc3Sc3ccc(Cl)cc32)CC1` [Zuclopenthixol hydrochloride] it was −1.8038; in that of `CC1=C2[C@H]3OC(=O)[C@@H](C)[C@@H]3CC[C@@]2(C)C=CC1=O` [alpha-Santonin], −0.8908. Take `CC[N+]1(C)[C@@H]2CC[C@H]1CC(OC(=O)[C@@H]1CC[C@@](C(=O)OC3C[C@H]4CC[C@@H](C3)[N+]4(C)CC)(c3ccccc3)c3ccccc31)C2.[Cl-].[Cl-]` (stereo partly drawn) [beta-Belladonnine dichloroethylate]: the Z-score in the experiment on ATGL-KO iPSCs [1] (setting [3]) is −0.7978. With (S)-(−)-Atenolol, the Z-score in the experiment with ATGL-KO iPSCs [1] (setting [3]) was 0.7787. As to (S)-propranolol hydrochloride, the Z-score in the experiment with ATGL-KO iPSCs [1] (setting [3]) is listed as 0.368. The molecule (−)-MK 801 hydrogen maleate yielded a Z-score with ATGL-KO iPSCs [1] (setting [3]) of −0.2074. On to (−)-Quinpirole hydrochloride, for which the Z-score with ATGL-KO iPSCs [1] (setting [3]) is 1.311. As to Alverine citrate salt, in the experiment with ATGL-KO iPSCs [1] (setting [3]), the Z-score is reported as −0.9516.

Regarding Antimycin A, the Z-score in the experiment with ATGL-KO iPSCs [1] (setting [3]) is recorded as 30.555. Consider Avermectin B1, for which the Z-score in the experiment on ATGL-KO iPSCs [1] (setting [3]) is recorded as −0.9704. In the case of Beta-Escin, the Z-score with ATGL-KO iPSCs [1] (setting [3]) is recorded as −1.7261. The molecule Bromocryptine mesylate came in with a Z-score in the experiment on ATGL-KO iPSCs [1] (setting [3]) of −0.775. In the experiment on ATGL-KO iPSCs [1] (setting [3]), Butirosin disulfate salt registered a Z-score of 0.2121. Regarding Carbinoxamine maleate salt, in the experiment with ATGL-KO iPSCs [1] (setting [3]), the Z-score is reported as 0.218. Still for that read-out and setting: then Clofilium tosylate, with 13.6063; and Colistin sulfate, with −0.5041; and Cotinine (−), with 0.644. Same read-out and setting: then Cyanocobalamin, with −1.3236.

Cytisine (−) showed a Z-score in the experiment on ATGL-KO iPSCs [1] of 1.049. Deptropine citrate showed a Z-score in the experiment on ATGL-KO iPSCs [1] (setting [3]) of −0.0889. Turning to Dihydroergotamine tartrate, in the experiment with ATGL-KO iPSCs [1] (setting [3]), the Z-score is on record as −0.7032. With Dihydroergotoxine mesylate, the Z-score with ATGL-KO iPSCs [1] (setting [3]) was found to be 1.217. Eburnamonine (−) came in with a Z-score in the experiment on ATGL-KO iPSCs [1] (setting [3]) of −1.0688. On the same count and under the same terms, in the case of Foliosidine it was −0.7349; in that of Guanadrel sulfate, −0.4661; in that of Helveticoside, −0.1112. On the same count and under the same terms, in the case of Ifenprodil tartrate it was 0.8399. Iobenguane sulfate gave a Z-score with ATGL-KO iPSCs [1] (setting [3]) of −0.2715. Still for that read-out and setting: in the case of Iproniazide phosphate it was −0.4106; in that of Isoetharine mesylate salt, −0.7902; in that of Ketanserin tartrate hydrate, 1.256. On the same count and under the same terms, then Lycorine hydrochloride, with 21.7885; and Mephentermine hemisulfate, with 0.04889.

Merbromin: the “Rank in normalized ORO score from screen” value in the experiment with ATGL-KO iPSCs [1] is 743. For the same molecule, in the experiment with ATGL-KO iPSCs [1] (setting [3]), the Z-score is listed as 0.2933. In turn, Pizotifen malate showed a Z-score in the experiment with ATGL-KO iPSCs [1] (setting [3]) of −1.2994. The same measure, in the same setting: then Pridinol methanesulfonate salt, with 1.97; and Pyrantel tartrate, with −0.1933. Still for that read-out and setting: then Retrorsine, with 0.08676; and S(−)Eticlopride hydrochloride, with −0.7335. For Solanine alpha, the Z-score with ATGL-KO iPSCs [1] (setting [3]) is on record as −1.7798. As for Spiramycin, in the experiment on ATGL-KO iPSCs [1] (setting [3]), the Z-score is −1.0612. Still for that read-out and setting: then Terbutaline hemisulfate, with 2.278; and Thioproperazine dimesylate, with −0.4051. The same measure, in the same setting: then Timolol maleate salt, with 0.4592; and Trimeprazine tartrate, with −1.418; and Trimipramine maleate salt, with −0.138. On to Tropicamide, for which the Z-score with ATGL-KO iPSCs [1] (setting [3]) was determined as 0.5083.

Take Tyloxapol: in the experiment on ATGL-KO iPSCs [1] (setting [3]), the Z-score came to 0.9571.

Turning to Verteporfin, the Z-score in the experiment with ATGL-KO iPSCs [1] (setting [3]) is −0.2331. Same read-out and setting: then Viomycin sulfate, with 1.64.

As for Vitamin K2, the Z-score with ATGL-KO iPSCs [1] (setting [3]) was 0.6129.
